Target: Beta-lactamase (Escherichia coli (strain K12), UniProt P00811)
Experiment: Beta-lactamase AmpC Inhibition Assay
Details: pH 7
From the text: Class C Beta-lactamase AmpC inhibition assay

Beta-lactamase, sequence (P00811 whole entry): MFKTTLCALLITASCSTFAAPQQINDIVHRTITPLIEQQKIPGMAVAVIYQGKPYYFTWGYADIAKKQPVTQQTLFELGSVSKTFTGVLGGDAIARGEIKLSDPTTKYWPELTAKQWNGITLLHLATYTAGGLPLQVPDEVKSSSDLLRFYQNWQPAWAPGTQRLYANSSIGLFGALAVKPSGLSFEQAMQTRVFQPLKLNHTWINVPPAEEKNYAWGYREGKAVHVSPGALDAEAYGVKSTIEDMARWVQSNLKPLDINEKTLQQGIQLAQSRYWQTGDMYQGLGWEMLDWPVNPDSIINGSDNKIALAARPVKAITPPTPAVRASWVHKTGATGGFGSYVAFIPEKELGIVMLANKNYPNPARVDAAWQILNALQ

| SMILES | Ki [µM] |
| --- | --- |
| O=C1c2ccccc2C(=O)N1CCc1nnn[nH]1 [CID7129233] | 3300 |
| CCc1c(C)[nH]n(-c2nnn[nH]2)c1=O [CID7357365] | 3100 |
| O=C(Nc1cccc(-c2nnn[nH]2)c1)c1cccc(F)c1 [CID8067740] | 2800 |
| C[C@@H](C(=O)O)N1C(=O)C2C3CCC(C3)C2C1=O (stereo partly specified) [CID25181259] | 2200 |
| O=C(O)CN1C(=O)O[C@@H](c2ccccc2)C1=O [CID25181261] | 3500 |
| O=c1c2c3c(sc2ncn1Cc1nn[nH]n1)CCCC3 [CID 7263523] | 1500 |
